According to patent US4602927A, “4-alkylimidazole derivatives and their use as nitrification inhibitors” (BASF Aktiengesellschaft, priority 1983, dated 1986):

Each compound was assayed on nitrification (assay: % inhibition of nitrification in soil (ammonium sulfate remaining in loamy sandy soil, Nessler reagent, 420 nm)). Details: 1 ppm based on moist soil, 50% of maximum water capacity, 28 days at 21° C., 220 mg ammonium sulfate per 200 g soil, versus untreated soil.
Procedure: 220 mg of ammonium sulfate were mixed thoroughly with 200 g of a loamy sandy soil whose moisture content had been brought to 50% of the maximum water capacity. The active ingredients, dissolved in 0.2 ml of acetone, were then added in amounts of 1 ppm, based on moist soil. After careful, thorough mixing, and evaporation of the acetone, the soil samples were incubated for 28 days at 21° C., together with the controls without added active ingredient, 1 liter glass vessels covered with aluminum foil to avoid loss of water.
2.5 g of each of the soil samples were then introduced into 100 ml conical flasks, and 22.5 ml of a 0.1N sodium sulfate solution was added. The flask was shaken for 30 minutes, after which the mixture was filtered, and 2.5 ml samples of the soil extracts were mixed with […] of distilled water. To detect the ammonium ions still present in the soil extract, 1.25 ml of Nessler reagent were then added, and the mixture was shaken thoroughly. The color changes were then measured photometrically at a wavelength of 420 nm. The amounts of ammonium sulfate still present in the soil samples were then determined with reference to standard curves obtained by a measurement of solutions containing known amounts of ammonium sulfate. The percentage inhibition of nitrification in the treated soil samples compared with the untreated soil samples (to which only ammonium sulfate had been added) was calculated using the following formula: [formula] a=nitrification rate for ammonium sulfate b=nitrification rate for ammonium sulfate+nitrification inhibitor
In the case of Cc1ncn(C(=O)Nc2ccccc2)c1Cl [Example 3, 1-N-phenylcarbamyl-4-methyl-5-chloroimidazole], the “% inhibition of nitrification 4 weeks after the addition of 1 ppm of active ingredient to the soil” value (“% inhibition of nitrification 4 weeks” below) is reported as 85%.
With Cc1ccn(C(=O)NOc2ccccc2)n1 [A, 1-phenoxycarbamyl-3-methylpyrazole, reference compound] the “% inhibition of nitrification 4 weeks” value was 69%.
With CNC(=O)n1cnc(C)c1Cl [Example 1, 1-N-methylcarbamyl-4-methyl-5-chloroimidazole] the “% inhibition of nitrification 4 weeks” value was 94%.
Cc1ncn(C(=O)Nc2ccc(Cl)c(Cl)c2)c1Cl [Example 4, 1-N-(3,4-dichlorophenyl)-carbamyl-4-methyl-5-chloroimidazole] was tested, and the “% inhibition of nitrification 4 weeks” value was 71%.
